The results in this text go back to a melting point compilation (Tetko et al.).

As usually defined, the melting point is the temperature of the solid-liquid transition. For `O=C(O)C=Cc1ccc(S(=O)(=O)N2CCc3ccccc32)cc1`, the melting point fell in the range of 199 to 201 °C. With `Nc1ccc(N2CCOCC2)c(F)c1` the figure was 121 to 123 °C; with `Cc1noc(COCC(=O)O)n1`, 76 to 78 °C; with `CCOC(=O)c1c(C)oc2nc(CCl)[nH]c(=O)c12`, 197 to 199 °C. For `CC(=O)NC1(c2noc(CCC(=O)O)n2)CCCCCC1` the value was 149 to 151 °C; for `Nc1n[nH]c2ccccc12`, 152 to 154 °C; for `Cc1nnc(N)o1`, 183 to 185 °C. For `O=C(O)Cc1cccc(OCc2cccnc2)c1` the value was 139 to 141 °C.

`CC(C)CC(=O)NCCc1ccc(S(N)(=O)=O)s1` came in with a melting point of 113 to 115 °C. Compound `CCOC(=O)C(=O)CC(=O)c1ccc(Cl)cc1Cl` showed a melting point of 68 to 70 °C. For `Cc1nc(S)c2c(C)c(C)sc2n1` the value was 193 to 195 °C; for `CS(=O)(=O)Nc1ccc(C(=O)O)c(O)c1`, 227 to 229 °C. For `N#CCNC(=O)CN1CCC(=O)CC1` the value was 124 to 126 °C; for `COC(=O)c1cc(F)c(F)cc1N`, 79 to 81 °C. For `c1csc(-c2nn[nH]n2)c1` the value was 201 to 203 °C; for `CC(C)(C)C1CCC(c2cc(N)[nH]n2)CC1` (stereo not given), 132 to 134 °C; for `N#Cc1cnc2ccccc2c1Cl`, 128 to 130 °C. Compound `CC(=O)NC1CNc2ccccc2C1` (stereo not given) came in with a melting point of 124 to 126 °C. With `O=C(O)CNC(=O)C1CCCCC1` the figure was 153 to 157 °C; with `Nc1nc2ccccc2nc1Cl`, 141 to 143 °C; with `O=C(O)CCS(=O)(=O)c1ccc2c(c1)CCC2`, 124 to 126 °C.

Compound `CCc1nc(C(=O)O)c[nH]1` returned a melting point of 239 to 241 °C. With `Nc1c(C(=O)c2ccco2)oc2ccccc12` the figure was 180 to 182 °C; with `CCOC(=O)CN1CCN(S(=O)(=O)c2ccccc2)CC1`, 75 to 77 °C. With `CCNC(=O)CCCl` the figure was 64 to 66 °C. For `COc1ccc(C(=O)CCC(=O)O)c(Cl)c1` the value was 165 to 167 °C; for `Cc1ccc(C)c(NC(N)=S)c1`, 140 to 142 °C. For the compound `COc1ccc(N)cc1NC(=O)c1cccc(F)c1`, the melting point lay within 100 to 102 °C. For `C#CC#CCCCCCC(=O)O` the value was 35 to 37 °C; for `O=C(O)CCc1nnc(-c2cccnc2)o1`, 197 to 199 °C. For `CN(C)c1ncnc2nc[nH]c12` the value was 256 to 258 °C; for `OCC1Cc2cc(Br)ccc2O1` (stereo not given), 63 to 65 °C.

The compound `COc1ccc(C(=O)CBr)cc1OC` returned a melting point of 83 to 85 °C.

In the case of `Cn1ccnc(Cl)c1=O`, the melting point fell in the range of 118 to 120 °C.

`CC(C)OCc1cc(C(=O)O)ccc1F` had a melting point of 84 to 86 °C. With `CNS(=O)(=O)Cc1ccc(C#N)cc1` the figure was 154 to 158 °C. For `O=C(O)c1cccnc1OCC(F)F` the value was 79 to 81 °C. For `Cc1ccc2c(c1)c(=O)n(C)c1nnc(CCl)n21` the value was 203 to 205 °C; for `O=C1CCc2ccccc2CN1`, 124 to 126 °C; for `COc1ccccc1C(O)c1ccccn1` (stereo not given), 57 to 59 °C. Regarding `Cc1ccc(C(=O)O)cc1S(=O)(=O)N1CCCCC1`, the melting point was in the range of 179 to 181 °C. For `O=c1[nH]nc(N2CCNCC2)c(=O)[nH]1` the value was 150 to 152 °C. With `N#CCc1ccc(OCC(=O)O)cc1` the figure was 148 to 150 °C; with `Cn1ccnc1CC#N`, 39 to 41 °C; with `CC(C)CNC(=O)CC#N`, 57 to 59 °C. For `Nc1cccc(S(=O)(=O)Nc2ccccc2F)c1` the value was 195 to 197 °C; for `Clc1ccnc2ccsc12`, 32 to 34 °C; for `O=[N+]([O-])c1ccc(S(=O)(=O)Cl)cc1Br`, 59 to 61 °C. As to `O=C(O)CC1COCCN1` (stereo not given), the melting point is 253 to 255 °C. For `COc1ccc(Cl)cc1CCl` the value was 44 to 46 °C.
